According to US20070166356A1, “Food supplement for animals, comprising an olfactory additive” (ADISSEO IRELAND LIMITED, priority 2004, published 2007):

Test system: turkey poults of stock BUT 9
Experiment: Free-choice feed consumption test in 6 day turkey poults
Type: in vivo
Settings: per cage of 5 turkey poults
Description: Test item no. 2 therefore comprises 0.05% of olfactory additive for 99.95% of methionine hydroxyl-analog. The test items are incorporated into a mixture of maize and soya, which is used as basic feed. The experimental plan is the following: [table] 150 turkey poults of stock BUT 9 are selected and placed in cages fitted out with a water bowl and two feeders with a capacity of about 0.3 kg. 5 turkey poults are placed per cage. The animals receive during the pre-experimental period (i.e. from D0to D6, 8.00am), an identical standard starting feed. During the experimental phase (i.e. D6 from 8am to 5pm), the animals are separated into three groups 10 A, B and C. For each group and each cage of this group, the animals have the choice between two test items. For example the animals of group A may choose between test item no. 3 and test item no. 1. Feeding is ad libitum with checking of consumption at […]. Furthermore, at each measuring time, the two feeders are interchanged in order to prevent the animals from being accustomed to the positioning of the feeders. […] The illustrated consumption is the consumption per cage, i.e. for 5 turkey poults. This consumption satisfies the following formula: (weight of the feeder at the end of the period)-(weight of the feeder at the beginning of the period). Averages are performed for each group over 12 cages.

## CSCC[C@H](N)C(=O)O [Test item no. 3, methionine]
T0 + 1 h, group A: choice test item no. 3 (0.2%) vs no. 1 (0.23%)
  Consumption, Average: 6.8 g
T0 + 1 h, group B: choice test item no. 3 (0.2%) vs no. 2 (0.23%), no. 2 = hydroxy analog + 0.5 g/kg olf. additive
  Consumption, Average: 9.1 g
T0 + 3 h, group A: choice test item no. 3 (0.2%) vs no. 1 (0.23%)
  Consumption, Average: 15.5 g
T0 + 3 h, group B: choice test item no. 3 (0.2%) vs no. 2 (0.23%)
  Consumption, Average: 14.9 g
T0 + 5 h, group A: choice test item no. 3 (0.2%) vs no. 1 (0.23%)
  Consumption, Average: 23.3 g
T0 + 5 h, group B: choice test item no. 3 (0.2%) vs no. 2 (0.23%)
  Consumption, Average: 22.6 g
T0 + 7 h, group A: choice test item no. 3 (0.2%) vs no. 1 (0.23%)
  Consumption, Average: 30.3 g
T0 + 7 h, group B: choice test item no. 3 (0.2%) vs no. 2 (0.23%)
  Consumption, Average: 30.0 g
T0 + 9 h, group A: choice test item no. 3 (0.2%) vs no. 1 (0.23%)
  Consumption, Average: 37.7 g
T0 + 9 h, group B: choice test item no. 3 (0.2%) vs no. 2 (0.23%)
  Consumption, Average: 36.8a g
